Three compounds from patent US12454550B2, “Compositions and methods for bioorthogonal surface coating” (Rutgers, The State University of New Jersey, priority 2021, dated 2025) can be followed below.

Series [1] is described as follows: Colorimetric assay using ALP on DOPA-Tet coated microcentrifuge tubes. The note with it: tubes coated with 10 mM DOPA-Tet, treated with enzyme and washed; 1 mg/mL p-NPP, 1 hour, room temperature. Format: biochemical. On the procedure: For the colorimetric assay using ALP, TBS was chosen as the buffer for washing and testing, because the high concentration of phosphate in PBS could affect the phosphatase activity of ALP. TCO-conjugated ALP (ALP-TCO) was prepared as described elsewhere herein. 0.2 mL microcentrifuge tubes (Bio-Rad Laboratories) were coated with 10 mM DOPA-Tet. The tubes were washed thoroughly with TBS 7.5 and sonicated to remove any loose aggregates. The tubes were grafted with either 0.2 mM ALP-TCO or 0.2 mM ALP, both in TBS 7.5. 50 μL of 1 mg/mL p-NPP in TBS 8.5 was added to each tube and incubated at room temperature for 1 hour. Absorbance at 405 nm was measured on a spectrophotometer (NanoDrop One). Three replicates for each grafted molecule, ALP-TCO or ALP, were prepared and measured.

A short description of series [2]: Colorimetric assay using GOx/HRP on DOPA-Tet coated microcentrifuge tubes. Type of series: biochemical. As to conditions: tubes coated with 10 mM DOPA-Tet, treated with enzymes and washed; 1 mM D-glucose and 1 mM ABTS, 1 hour. Here is the method: TCO-conjugated GOx (GOx-TCO) and HRP (HRP-TCO) were prepared as described above. 0.2 mL microcentrifuge tubes were coated with 10 mM DOPA-Tet. The tubes were washed with PBS and sonicated to help remove any loose aggregates. The tubes were grafted with either 0.2 mM GOx-TCO and 0.2 mM HRP-TCO, or 0.2 mM GOx and 0.2 mM HRP. […] Absorbance at 405 nm was measured on a spectrophotometer (NanoDrop One). Three replicates of each set of enzymes, TCO-conjugated or native, were prepared and measured.

Series [3] is described as follows: Coating stability at various pH. Format: physicochemical. As to conditions: coated glass vials, 5 days at 37° C. On the procedure:
Six 4 mL glass vials (VWR International) were coated with 10 mM DOPA-Tet and incubated for 5 days at 37° C. in 1 mL of either 50 mM MES pH 4.5 (Millipore-Sigma), 100 mM IVIES pH 6.0, PBS, TBS 8.5, 100 mM NaHCO3 pH 9.5 (Millipore-Sigma) or 10% DMSO (Millipore-Sigma) in PBS. After incubation, samples were rinsed with Milli-Q water, dried, and imaged.

A short description of series [4]: Coating stability in human serum, ALP activity on p-NPP afterwards. As to conditions: DOPA-Tet coated glass vial, 5 days at 37° C. in human serum, then 1 mg/mL p-NPP 1 hour. Type of series: biochemical. Here is the method: Two additional 4 mL glass vials were prepared and incubated in human serum. Both samples were coated with 10 mM DOPA-Tet, and one was grafted with 0.2 mM ALP-TCO. Both samples were incubated in 1 mL of human serum from clotted whole blood (Millipore-Sigma) for 5 days at 37° C. After incubation, both samples were washed with PBS and 1 mL of 1 mg/mL p-NPP was added. After incubation for 1 hour at room temperature, both samples were imaged and their absorbance at 405 nm was measured on a spectrophotometer (NanoDrop One).

Series [5] concerns S. aureus. Briefly: Planktonic bacterial growth inhibition at the surface (PrestoBlue). Type of series: cell-based. As to conditions: coated 96-well plate, incubated overnight, resazurin readout. On the procedure:
The wells of a non-treated clear 96 well culture plate were either left uncoated or coated with 10 mM DOPA-Tet and then incubated with either vancomycin-TCO, vancomycin, or PBS. […] 100 μL of culture was added to the wells and the plate was covered and incubated at 37° C. for 18 hours, after which 10 μL of PrestoBlue™ was added to each well. After 1 hour incubation, the media was transferred to clean wells and absorbance at 570 nm was recorded using a plate reader.
(In general: Alamar Blue is a resazurin reagent that responds to reducing activity.)

The test system of series [6] is S. aureus biofilm. Put plainly: Biofilm crystal violet assay. Type of series: cell-based. The note with it: coated surfaces incubated with S. aureus for 72 hours. Here is the method:
100 μL of freshly prepared coating solution containing 10 mM DOPATet and 2500 U/mL tyrosinase in PBS was added to the wells of a 96-well plate and incubated at room temperature for 6 hours. […] As described elsewhere herein, S. aureus was grown overnight in TSB, then diluted 1:100 in TSB containing 3% glucose. 300 μL of the dilute bacteria was added to the coated well plate, which was then incubated at 37° C. for 72 hours. After incubation the media was decanted, and the plate was air dried for 5 minutes. 200 μL of 0.9% NaCl in sterile water was gently added to the wells, then decanted, and air dried for 5 minutes. The wells were washed twice more with 0.9% NaCl, and after the final drying, 200 μL methanol was added to each well. The plate was left at room temperature for 15 minutes, then the methanol was decanted and the plate air dried for 5 minutes. 100 μL of 3% crystal violet in sterile water was added to the wells and incubated at room temperature for 20 minutes. The dye was decanted, and the plate air dried. The wells were washed three times with 0.9% NaCl as above. After the final air drying, 150 μL of methanol was added to the wells, and mixed to allow for dissolution of the crystal violet. The dye solution was then decanted and diluted 1:10 in methanol, then the absorbance at 590 nm was recorded.

The subject of series [7] is S. aureus biofilm. Briefly: Biofilm microscopy (PI/SYTO 9, CLSM). As to conditions: coated microscopy dishes, PI/SYTO 9 staining. Format: cell-based. Here is the method: 200 μL of freshly prepared coating solution containing 10 mM DOPA-Tet and 2500 U/mL tyrosinase in PBS was added to a glass bottom culture dush. The dish was incubated at room temperature for 6 hours, during which a coating was formed. […] S. aureus was grown overnight in TSB, then diluted 1:100 in TSB containing 3% glucose. 300 μL of the dilute bacteria was added to the microscope dishes, which were then placed in a 37° C. incubator. The samples were incubated for 72 hours, with the media being topped up every day to account for evaporation. The media was decanted and then the dishes were washed with 200 μL of 0.9% NaCl, followed by a 1-hour incubation at room temperature with 250 μL of TSB containing Syto9 (10 μM) and PI (10 μM). The dyes were then decanted and the samples were washed again with saline. Finally, 150 μL of HBSS was added, and the dishes were imaged on a Leica SP8 confocal microscope.

Series [8] can be described thus: Michaelis-Menten kinetics of native and TCO-conjugated ALP (UV-Vis, 405 nm). Type of series: biochemical. As to conditions: 5 nM enzyme, p-NPP in TBS 8.5, room temperature. On the procedure: Both assays produce an increase in absorbance at 405 nm, the evolution of which at room temperature was measured on a microplate reader (SpectraMax iD3) over 1 hour. […] These trials were omitted from data analysis. Velocities were estimated by linear regression, and Michaelis-Menten parameters were calculated using both Lineweaver-Burk plots and non-linear least squares regression. R-squared values for all regressions were above 0.95 with the vast majority being above 0.98.

Series [9] can be described thus: Stability of grafted enzymes after repeated use. Format: biochemical. The note with it: enzymes grafted on DOPA-Tet coated tubes, repeated substrate and buffer incubations with washes. Here is the method: Eight 0.2 mL microcentrifuge tubes were coated with 50 μL of 10 mM DOPA-Tet. The tubes were washed thoroughly with TBS (pH 7.5). Three tubes each were grafted with 50 μL of either 0.1 mM ALP-TCO or 0.1 mM GOx-TCO and 0.1 mM HRP-TCO. The two remaining coated tubes were not grafted with any enzymes. The tubes were washed thoroughly with TBS (pH 7.5). 25 μL of 1 mg/mL p-NPP in TBS (pH 8.5) was added to the ALP-grafted tubes and 25 μL 1 mM ABTS and 1 mM D-glucose in PBS (pH 7.4) was added to the GOX/HRP grafted tubes. Each substrate solution was also added to one of the tubes that was not grafted (for controls). […] Absorbance at 405 nm was measured on a spectrophotometer (Thermo Scientific NanoDropOneC). All tubes were then thoroughly washed with TBS (pH 7.5). Then TBS (pH 8.5) was added to the ALP-grafted tubes and PBS (pH 7.4) was added to the GOX/HRP grafted tubes. Each buffer solution was also added to one of the tubes that was not grafted. […] The buffer solutions were then removed from the tubes. This process of incubating with substrate and then buffer solutions was repeated for all tubes 9 more times, for a total of 10 cycles.

Series [10] deals with S. aureus. Put plainly: Minimum Inhibitory Concentration (MIC) assay. Type of series: cell-based. As to conditions: Staphylococcus aureus; in solution, 37° C., 18 to 24 h, n=3. On the procedure:
A glycerol stock of S. aureus was struck on a tryptic soy agar plate and incubated overnight at 37° C. Single colonies were then picked and diluted into tryptic soy broth (TSB) and left to grow overnight. Next, the culture was diluted approximately 40-fold into fresh TSB and grown to mid-log phase (OD600=0.4 to 0.8). 5 mg/mL stock solutions of Vancomycin-TCO and vancomycin in DMSO were serially diluted two-fold with TBS across the wells of a non-treated 96-well plate, with concentrations ranging from 0.0625 to 128 μg/mL. The mid-log phase cultures were diluted to a final concentration of 5×10^5 colony forming units (CFU)/mL in TSB then 50 μL was added to each antimicrobial-containing well, giving a final antimicrobial concentration range of 0.031 to 64 μg/mL. All the plates were covered and incubated at 37° C. for 18 to 24 h. The MIC was defined as the lowest compound concentration at which no bacterial growth was visible (n=3).

Values after ≈ are worked out from the molar mass of the structure shown. Read-outs that look alike come from different tables or passages of the source.

Turning to `Cc1nnc(-c2ccc(OCCOCCOCCOCCNC(=O)C(N)Cc3ccc(O)c(O)c3)cc2)nn1` (racemic) [DOPA-Tet, (±)-2-amino-3-(3,4-dihydroxyphenyl)-N-(2-(2-(2-(2-(4-(6-methyl-1,2,4,5-tetrazin-3-yl)phenoxy)ethoxy)ethoxy)ethoxy)ethyl)propanamide], the “activity (absorbance at 405 nm)” value is 0.05 OD in series [1] and −0.07 OD in [2]. The coating stability result in series [3] (10% DMSO in PBS) is “slightly solubilized”; in series [3] (buffered from pH 4.5 to 8.5) it was “No degradation of the coating was observed”; in series [3] (pH 9.5), “delamination and degradation of the coating were observed”. Further, in series [4], the “ALP activity on p-NPP after incubation in human serum” value is reported as “did not show any visually detectable activity”. Also, the “growth of S. aureus (planktonic)” value with S. aureus [5] is given as “not antimicrobial”. Moreover, the “biofilm formation (crystal violet, absorbance at 590 nm)” value with S. aureus biofilm [6] is “successfully inhibited biofilm formation”. Moreover, in the series on S. aureus biofilm [7], the “biofilm formation (CLSM)” value is on record as “no biofilm was observed”.
Turning to “ALP: alkaline phosphatase, native enzyme (SEQ ID NO:2)”, the Michaelis constant (Km) – broadly, the concentration of substrate that gives half-maximal velocity – in [8] (Lineweaver-Burk plots, read-out: Km by LB) is 281 µM; in series [8] (non-linear least squares regression, read-out: Km by nls), 207 µM. The “activity (absorbance at 405 nm)” value in series [1] was determined as 1.66 OD. Also, the “loss of activity on repeated use (absorbance at 405 nm)” value in [9] is “little loss of activity over 10 cycles”.
As to `CN[C@H](CC(C)C)C(=O)N[C@H]1C(=O)N[C@@H](CC(N)=O)C(=O)N[C@H]2C(=O)N[C@H]3C(=O)N[C@H](C(=O)N[C@H](C(=O)NCCOCCOCCOCCOCCOCCOCCOCCOCCNC(=O)OC4CC/C=C/CCC4)c4cc(O)cc(O)c4-c4cc3ccc4O)[C@H](O)c3ccc(c(Cl)c3)Oc3cc2cc(c3O[C@@H]2O[C@H](CO)[C@@H](O)[C@H](O)[C@H]2O[C@H]2C[C@](C)(N)[C@H](O)[C@H](C)O2)Oc2ccc(cc2Cl)[C@H]1O` (some centres unmarked) [vancomycin-TCO], in the series with S. aureus [10], the lowest concentration to inhibit growth (MIC) was 16 µg/mL (≈ 8.02 µM).
